SMILES strings stand for the structures. Like-named read-outs stand apart in the source and are kept apart here.

One data set relates to COX-2 promoter construct. The data set is described as follows: Interleukin-1β induced COX-2 promoter construct (huCOX-2-LUC) luciferase assay in RPE cells. The data set is classed as cell-based, human. Conditions: IL-1β 10 ng/ml, 14 h. The procedure: COX-2 is a proinflammatory protein that participates in RPE cell injury. ARPE-19 cells were grown over night in six well plates and then transfected with huCOX-2-LUC (−830) promoter construct (5 ug) for 24 h. Transfected cells were serum starved for 8 h before the addition of IL-1β (10 ng/ml). IL-1β treated cells were challenged with 100 nM, 500 nM, and 1000 nM concentrations of lipoxin A4 and lipoxin A4 epimer 15 for 14 h. Cells were then harvested, and luciferase assays were performed using luciferin as substrate.

Data set [1] relates to ARPE-19 cells. Briefly: Apoptosis in RPE cells in which oxidative stress had not been induced (test whether lipoxin caused stress), Hoechst staining. The data set is classed as cell-based. The procedure:
(§1) ARPE-19 cells (L. M. Hjelmeland, ATCC #CRL-2302) were grown and maintained in DMEM-F12 medium supplemented with 10% FBS and incubated at 37° C. with a constant supply of 5% CO2. ARPE-19 cells are spontaneously transformed human retinal pigment epithelial cells that conserve cellular biological and functional properties. All chemicals were purchased from Sigma Chemical Co. (St. Louis, Mo.) unless otherwise indicated.
ARPE-19 cells growing in DMEM-F-12 medium for 72 h were serum starved for 8 h before induction of oxidative stress, as described in P. K. Mukherjee et al., “Photoreceptor outer segment phagocytosis attenuates oxidative stress-induced apoptosis with concomitant neuroportectin D1 synthesis,” PNAS, vol. 104, pp. 13158-13163 (2007). Oxidative stress was introduced by TNF-α (10 ng/ml) and H2O2 (600 uM) for 14 h and challenged with different concentrations of either lipoxin-A4 or lipoxin A4 epimer 15 (10 nM, 50 nM, and 100 nM; Calbiochem, Madison, Wis.), as indicated in FIG. 1. […] The apoptotic cell death was scored by Hoechst staining, as described in Mukherjee et al., 2007. The results were expressed as percentage inhibition of apoptosis by counting the Hoechst positive cells, and are shown in FIG. 1.

In data set [2] the test system is ARPE-19 cells. The data set is described as follows: Inhibition of apoptosis induced by oxidative stress (TNF-α/H2O2) in RPE cells, Hoechst staining. The data set is classed as cell-based, human. Conditions: TNF-α 10 ng/ml + H2O2 600 uM, 14 h, FIG. 1. On the procedure:
as §1
ARPE-19 cells growing in DMEM-F-12 medium for 72 h were serum starved for 8 h before induction of oxidative stress, as described in P. K. Mukherjee et al., “Photoreceptor outer segment phagocytosis attenuates oxidative stress-induced apoptosis with concomitant neuroportectin D1 synthesis,” PNAS, vol. 104, pp. 13158-13163 (2007). Oxidative stress was introduced by TNF-α (10 ng/ml) and H2O2 (600 uM) for 14 h and challenged with different concentrations of either lipoxin-A4 or lipoxin A4 epimer 15 (10 nM, 50 nM, and 100 nM; Calbiochem, Madison, Wis.), as indicated in FIG. 1. In initial experiments to test whether lipoxin caused stress, lipoxin A4 and lipoxin A4 epimer 15 were added to RPE cells in which oxidative stress had not been induced with TNF-α or H2O2. The apoptotic cell death was scored by Hoechst staining, as described in Mukherjee et al., 2007. The results were expressed as percentage inhibition of apoptosis by counting the Hoechst positive cells, and are shown in FIG. 1.

Data set [3] deals with ARPE-19 cells. Briefly: Lipoxins and NPD1 combined effect on apoptosis induced by oxidative stress in RPE cells. The data set is classed as cell-based, human. Conditions: NPD1 30 nM with lipoxin A4 or its analog 100 nM, 14 h; FIG. 2. On the procedure: The growth of RPE cells, serum starvation, and induction of apoptosis were the same as described above in Example 1 and in Mukherjee et al., 2007. To test for a synergistic effect between lipoxin A4 and […] (NPD1), the oxidative-stressed RPE cells were treated with NPD1 (30 nM) and with lipoxin A4 or its analog (100 nM) for 14 h as indicated in FIG. 2. The percent apoptosis is expressed as described above in Example 1 as a percentage of the Hoechst positive cells.

Where [4] appears, read: 100, 500, 1000 nM, luciferase, FIG. 3.

Take `CCCCC[C@@H](O)/C=C/C=C\C=C\C=C\[C@@H](O)[C@@H](O)CCCC(=O)O` (single isomer, unassigned; epimer 15) [lipoxin A4 epimer 15, 15-epi-lipoxin A4]: the “inhibition of IL-1β mediated induction of COX-2 promoter construct” value in the data set on COX-2 promoter construct (100 nM (lowest inhibition)) was 35%; with COX-2 promoter construct (1000 nM) it was “highest”; in the data set with COX-2 promoter construct (setting [4]), “inhibit IL-1β mediated induction of COX-2 promoter construct in RPE cells in a concentration-dependent manner”. Also, the “induction of apoptosis in RPE cells” value in the data set on ARPE-19 cells [1] (no oxidative stress (no TNF-α or H2O2), Hoechst positive cells, FIG. 1) is “did not induce apoptosis”. Moreover, the “inhibition of apoptosis in RPE cells under oxidative stress” value with ARPE-19 cells [2] (100 nM) was “highest inhibition”; with ARPE-19 cells [2] (10, 50, 100 nM) it was “able to inhibit apoptosis in RPE cells in a concentration-dependent manner”.

Consider `CC/C=C\C[C@H](O)\C=C/C=C/C=C/[C@H](O)C/C=C\C/C=C\CCC(=O)O` [NPD1, neuroprotectin D1, reference compound], for which, in the data set on ARPE-19 cells [3], the “effect of lipoxin combined with NPD1 on oxidative stress-induced apoptosis” value is listed as “additive”.

As for `CCCCC[C@H](O)/C=C/C=C\C=C\C=C\[C@@H](O)[C@@H](O)CCCC(=O)O` [lipoxin A4], the “inhibition of IL-1β mediated induction of COX-2 promoter construct” value with COX-2 promoter construct (100 nM (lowest inhibition)) is reported as 35%; in the data set with COX-2 promoter construct (1000 nM), “highest”; in the data set with COX-2 promoter construct (setting [4]) it was “inhibit IL-1β mediated induction of COX-2 promoter construct in RPE cells in a concentration-dependent manner”. Moreover, the “effect of lipoxin combined with NPD1 on oxidative stress-induced apoptosis” value in the data set on ARPE-19 cells [3] is recorded as “additive”. Moreover, the “induction of apoptosis in RPE cells” value in the data set with ARPE-19 cells [1] was “did not induce apoptosis”. Also, the “inhibition of apoptosis in RPE cells under oxidative stress” value with ARPE-19 cells [2] (100 nM) is “highest inhibition”; with ARPE-19 cells [2] (10, 50, 100 nM), “able to inhibit apoptosis in RPE cells in a concentration-dependent manner”.

Values taken from US20100324138A1, “Lipoxin A4 Protection for Retinal Cells” (priority 2007, published 2010).
